In patent publication US10689394B2, “Thieno[2,3-b]pyridine derivative, quinoline derivative, and use thereof” (The University of Tokyo, priority 2016, dated 2020):

Target: T1, binding between ALS-related mutant SOD1 (Flag-SOD1 G93A) and Derlin-1 (Derlin-1-HA) (Homo sapiens, UniProt P00441+Q9BUN8, G94A)
T1 construct: expressed in transfected cells; host or cells: HEK293A
Assay: Cell-based co-immunoprecipitation assay of mutant SOD1 (G93A)-Derlin-1 binding
Parameters: key to Activity value (score): a compound exhibiting no inhibitory activity is set at 0; a compound exhibiting inhibitory activity is set at 1; a compound exhibiting significant inhibitory activity is set at 2; a compound having higher inhibitory activity than the compound of Example 1 is set at 3
Settings: assay concentration 20 μM; HEK293A cells overexpressing Flag-SOD1 G93A and Derlin-1-HA
Experimental: As cells, human embryonic kidney-derived, Human Embryonic Kidney 293A (HEK293A) cells were used. The cells were cultured in High Glucose Dulbecco's modified Eagle's medium (DMEM: 4.5 mg/ml glucose, Sigma) supplemented with complement-inactivated 10% fetal bovine serum (FBS, Vitromex) and 100 units/mL Penicillin G (Meiji), which was placed in an incubator set at conditions of 37° C. and 5% CO2.
Transfection into the HEK293A cells was carried out using PEI-Max (Polyscience) at a ratio of 3 μL of PEI-Max to 1 μg of plasmid. DMEM was mixed with PEI-Max, and the mixture was then left at rest for 5 minutes. Thereafter, the reaction mixture was added to the plasmid DNA dissolved in DMEM, and the thus obtained mixture was further left at rest for 15 minutes. After seeding, the culture was carried out for 12 to 24 hours, and the resultant was then added to a culture medium of cells, in which the medium had been exchanged with DMEM supplemented only with 10% FBS.
pcDNA3.0-Derlin-1-HA, pcDNA3.0-Flag-SOD1 G93A, and 123 types of other mutants.
In the lysis of HEK293A cells for use in a co-immunoprecipitation experiment, an IP lysis buffer (20 mM Tris-HCl (pH 7.5), 150 mM NaCl, 10 mM EDTA (pH 8.0), 1% Triton-X 100, 5 μg/mL leupeptin, and 1 mM phenylmethylsulfonyl fluoride) was used.
After the transfection on a 24-well plate, the cells were cultured for 12 hours or 24 hours, and the obtained cell culture was exchanged with 200 μL of medium. Thereafter, 1% DMSO or various types of compounds having each different concentration were added into the culture. Thirty-six hours or twenty-four hours later, the cells were incubated in the IP lysis buffer (300 μL/well) at 4° C. for 25 minutes, so that the cells were lysed. The cell lysate was centrifuged at 4° C. at 15000 rpm for 10 minutes, and a supernatant was then recovered. To this supernatant, Anti-Flag M2 affinity gel was added in a liquid amount of 20 μL, and they were allowed to react with each other by subjecting the obtained mixture to inversion mixing at 4° C. for 25 minutes. After completion of the reaction, a supernatant was removed, and the residue was washed twice with High salt wash buffer (1% Triton X 100, 500 mM NaCl, 20 mM Tris-HCl (pH 7.5), and 5 mM EGTA), and was then washed once with Low salt wash buffer (150 mM NaCl, 20 mM Tris-HCl (pH 7.5), and 5 mM EGTA). Finally, 50 μL of a 2×SDS sample buffer was added to the resultant, and the obtained mixture was then boiled at 98° C. for 3 minutes to obtain an SDS-PAGE sample. Regarding the lysate, a 2×SDS sample buffer was added in an amount equal to the supernatant, and the obtained mixture was then boiled at 98° C. for 3 minutes to obtain an SDS-PAGE sample.
After completion of SDS-PAGE, a protein was transferred from the gel into a polyvinylidene difluoride membrane (PVDF) ([…], Pall), and was then blocked with TBS-T (150 mM NaCl, 50 mM Tris-HCl (pH 8.0), and 0.05% Tween 20) supplemented with 5% skimmed milk at room temperature for 2 hours or more. Thereafter, a primary antibody diluted with TBS-T supplemented with 5% bovine serum albumin and 0.1% NaN3 was allowed to bind to each molecule on the PVDF membrane at 4° C. for 12 hours or more. After completion of the reaction, a secondary antibody (HRP-linked 2nd antibody) diluted with TBS-T supplemented with 5% skimmed milk was allowed to bind to the primary antibody at room temperature for 1 hour. Thereafter, the resultant was washed with TBS-T for 15 minutes, 3 or more times, and detection was then carried out using an enhanced chemiluminescence (ECL) system.
With regard to the compounds of the present invention (Example Compound 1 to Example Compound 47), whether or not the present compound can inhibit the binding between ALS-related mutant SOD1 and Derlin-1 in a cell by being added into a cell culture solution was examined according to a co-immunoprecipitation experiment. […]

T1 sequence (P00441 whole entry G94A, species assumed): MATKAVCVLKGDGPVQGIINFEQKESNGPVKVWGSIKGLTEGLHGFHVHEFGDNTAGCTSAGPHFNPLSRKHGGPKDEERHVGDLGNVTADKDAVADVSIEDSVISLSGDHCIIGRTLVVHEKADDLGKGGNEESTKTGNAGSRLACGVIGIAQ
T1 sequence (Q9BUN8 whole entry, species assumed, stated change not applied): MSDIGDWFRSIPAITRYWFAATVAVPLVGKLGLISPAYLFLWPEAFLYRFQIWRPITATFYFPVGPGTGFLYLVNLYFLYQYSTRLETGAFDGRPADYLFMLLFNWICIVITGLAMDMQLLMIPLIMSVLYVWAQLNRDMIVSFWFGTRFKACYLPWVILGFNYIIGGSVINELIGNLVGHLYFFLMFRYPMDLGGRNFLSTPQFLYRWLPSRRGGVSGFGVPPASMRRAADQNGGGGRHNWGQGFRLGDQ

Row | Activity value (score) | Compound
1 | 1 | Nc1c(C(=O)Nc2ccc(C(F)(F)F)cc2)sc2nc(-c3cccnc3)ccc12 [Example 29, 3-amino-6-(3-pyridinyl)-N-(4-(trifluoromethyl)phenyl)thieno[2,3-b]pyridine-2-carboxamide]
2 | 1 | Nc1c(C(=O)Nc2ccc(-c3cc(C(F)(F)F)cc(C(F)(F)F)c3)cc2)sc2nc(-c3cccnc3)ccc12 [Example 30, 3-amino-N-(3′,5′-bis(trifluoromethyl)-[1,1′-biphenyl]-4-yl)-6-(3-pyridinyl)thieno[2,3-b]pyridine-2-carboxamide]
3 | 1 | Nc1c(C(=O)Nc2cccc(C(F)(F)F)c2)sc2nc(-c3ccncc3)ccc12 [Example 31, 3-amino-6-(4-pyridinyl)-N-(3-(trifluoromethyl)phenyl)thieno[2,3-b]pyridine-2-carboxamide]
4 | 1 | Nc1c(C(=O)Nc2ccncc2)sc2nc(-c3ccncc3)ccc12 [Example 32, 3-amino-N-(4-pyridinyl)-6-(4-pyridinyl)thieno[2,3-b]pyridine-2-carboxamide]
5 | 1 | Nc1c(C(=O)Nc2ccncc2)sc2nc(-c3cncnc3)ccc12 [Example 33, 3-amino-N-(4-pyridinyl)-6-(5-pyrimidinyl)thieno[2,3-b]pyridine-2-carboxamide]
6 | 1 | C=C(C)CN(C(=O)c1sc2nc(-c3cccnc3)ccc2c1N)c1ccc(F)cc1 [Example 34, 3-amino-N-(4-fluorophenyl)-N-(2-methylprop-2-en-1-yl)-6-(3-pyridinyl)thieno[2,3-b]pyridine-2-carboxamide]
7 | 1 | C#CCN(C(=O)c1sc2nc(-c3cccnc3)ccc2c1N)c1ccc(F)cc1 [Example 35, 3-amino-N-(4-fluorophenyl)-N-(prop-2-yn-1-yl)-6-(3-pyridinyl)thieno[2,3-b]pyridine-2-carboxamide]
8 | 1 | C#CCOC/C=C\CN(C(=O)c1sc2nc(-c3cccnc3)ccc2c1N)c1ccccc1 [Example 36]
9 | 2 | Nc1c(C(=O)N(Cc2ccccc2)c2ccccc2)sc2nc(-c3cccnc3)ccc12 [Example 37, 3-amino-N-benzyl-N-phenyl-6-(3-pyridinyl)thieno[2,3-b]pyridine-2-carboxamide]
10 | 1 | CC(C)=CCN(C(=O)c1sc2nc(-c3cccnc3)ccc2c1N)c1ccncc1 [Example 39, 3-amino-N-prenyl-N-(4-pyridinyl)-6-(3-pyridinyl)thieno[2,3-b]pyridine-2-carboxamide]
11 | 1 | Nc1c(C(=O)N(CC=C2CCCC2)c2ccccc2)sc2nc(-c3cccnc3)ccc12 [Example 40, 3-amino-N-(2-cyclopentylideneethyl)-N-phenyl-6-(3-pyridinyl)thieno[2,3-b]pyridine-2-carboxamide]
12 | 3 | CC1(C)CCN(C(=O)c2sc3nc(-c4cccnc4)ccc3c2N)c2ccccc21 [Example 41]
13 | 1 | CC(C)=CCN(C(=O)c1ccc2nc(-c3cccnc3)ccc2c1N)c1ccccc1 [Example 42, 5-Amino-N-phenyl-N-prenyl-2-(pyridin-3-yl)quinoline-6-carboxamide]
14 | 1 | CC(C)=CCN(C(=O)c1sc2nc(-c3ccncc3)ccc2c1N)c1ccc(C(C)(C)C)cc1 [Example 43, 3-amino-N-(4-tert-butylphenyl)-N-(3-methylbut-2-en-1-yl)-6-(4-pyridinyl)thieno[2,3-b]pyridine-2-carboxamide]
15 | 1 | CC1(C)CCN(C(=O)c2sc3nc(-c4ccncc4)ccc3c2N)c2ccccc21 [Example 44]
16 | 1 | COc1cccc(N(CC=C(C)C)C(=O)c2sc3nc(-c4ccncc4)ccc3c2N)c1 [Example 45, 3-amino-N-(3-methoxyphenyl)-N-prenyl-6-(4-pyridinyl)thieno[2,3-b]pyridine-2-carboxamide]
17 | 2 | COc1ccc(N(CC=C(C)C)C(=O)c2sc3nc(-c4ccncc4)ccc3c2N)cc1 [Example 46, 3-amino-N-(4-methoxyphenyl)-N-prenyl-6-(4-pyridinyl)thieno[2,3-b]pyridine-2-carboxamide]
18 | 2 | C=C(C)CN(C(=O)c1sc2nc(-c3ccncc3)ccc2c1N)c1ccccc1 [Example 47, 3-amino-N-metallyl-N-phenyl-6-(4-pyridinyl)thieno[2,3-b]pyridine-2-carboxamide]
